Biological target: T1, EhCaBP1 (Entamoeba histolytica, UniProt P38505)
T1 construct: gene CaBP1; trimer, Phe site between EF1 and EF2 of neighbouring molecules; C-terminal half without density; strain printed for amoeba culture only
Assay: X-ray crystal structure of the complex (co-crystallisation)
Type: binding
Details: 2 mM phenylalanine, 10 mM CaCl2 in protein solution; crystals from 63-65% MPD, 5 mM CaCl2, 50 mM acetate pH 4, 16 °C; hydrophobic pocket between EF1 and EF2 of adjacent molecules

T1 sequence (P38505 whole entry): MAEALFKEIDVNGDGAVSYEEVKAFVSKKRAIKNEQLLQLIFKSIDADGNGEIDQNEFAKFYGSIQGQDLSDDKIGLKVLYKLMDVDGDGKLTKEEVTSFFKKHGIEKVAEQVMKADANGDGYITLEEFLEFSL

Structure (SMILES): N[C@@H](Cc1ccccc1)C(=O)O [Phenylalanine]
- X-ray crystal structure of the complex (co-crystallisation): hydrophobic pocket formed at the interface between EF1 and EF2 in the assembled domain
